System: insulin and glucagon release
Test: determination of insulin and glucagon release using the isolated perfused pancreas of a rat
Conditions: multiple of the reference's inhibitory effect

In the case of “[D-Trp^8 ; β-(1-naphthyl)-Gaba^12 ]-cyclosomatostatin(5-12)-octapeptide [formula ID diastereoisomeric mixture]”, the “inhibitory effect relative to [D-Trp^8 ; Gaba^12 ]-cyclosomatostatin(5-12)-octapeptide (formula M, p=1)” value is reported as “approximately 10 times”.

From US4328214A, “Cyclopeptides and pharmaceutical preparations thereof and also processes for their manufacture” (Ciba-Geigy Corporation, priority 1979, dated 1982)
